Measured values published in PMC9501832 (Pharmaceutics, 2022).
Like-named read-outs stand apart in the source and are kept apart here.

Experiments:
[1] = target: phosphodiesterase enzyme type 5 (PDE5) (Homo sapiens, UniProt O76074); assay: In vitro enzyme assay (Transcreener fluorescence polarization); assay type: biochemical; conditions: 10-dose, 3-fold serial dilution starting at 50 uM
Method: Tested compounds (series B, D, E and G) were tested against phosphodiesterase enzyme type 5 (PDE5) in order to investigate their inhibitory activities. The in vitro enzyme assay was conducted using Transcreener Fluorescence polarization assay to detect the reaction product GMP. The compounds were suspended in DMSO to make 10 mM stock solutions. The procedure was conducted using the following buffer system; 10 mM Tris, pH 7.5, 5 mM MgCl2, 0.01% Brij 35, 1 mM DTT and 1% DMSO. […] The tested samples were added into the enzyme by Acoustic Technology. The substrate was added and incubated for 1 h. Fluorescence polarization (FP) was measured after 90 min incubation at rt and mP was calculated. Data were analyzed based on the GMP standard curve.

[2] = system: PDE5; conditions: training set, supplement reference list, read-out: PDE5 IC50 Experimental, cited from earlier work

Compound | melting point | IC50 [1] | also measured
O=C(Cc1nc2ncccc2[nH]c1=O)NNC(=O)Nc1ccccc1 [Compound 5a] | 218 to 220 °C | – | –
O=C(Cc1nc2ncccc2[nH]c1=O)NNC(=O)Nc1ccc(Cl)cc1 [Compound 5b] | 230 to 232 °C | – | –
O=C(Cc1nc2ncccc2[nH]c1=O)NNC(=S)Nc1ccccc1 [Compound 5c] | 234 to 236 °C | – | –
O=C(Cc1nc2ncccc2[nH]c1=O)N/N=C/c1ccccc1 [Compound 6a] | 228 to 230 °C | 0.0591 µM | –
O=C(Cc1nc2ncccc2[nH]c1=O)N/N=C/c1ccc([N+](=O)[O-])cc1 [Compound 6b] | – | 0.0679 µM | –
COc1ccc(/C=N/NC(=O)Cc2nc3ncccc3[nH]c2=O)cc1 [Compound 6c] | 222 to 224 °C | 0.047 µM | –
O=C(Cc1nc2ncccc2[nH]c1=O)NN1C(=O)CCC1=O [Compound 7a] | 210 to 212 °C | – | –
O=C(Cc1nc2ncccc2[nH]c1=O)NN1C(=O)C=CC1=O [Compound 7b] | 213 to 215 °C | – | –
O=C(Cc1nc2ncccc2[nH]c1=O)NN1C(=O)c2ccccc2C1=O [Compound 7c] | 211 to 213 °C | – | –
CCN(CC)Cc1nc2ncccc2[nH]c1=O [Compound 8a] | 262 to 263 °C | 0.0938 µM | –
O=c1[nH]c2cccnc2nc1CN1CCCCC1 [Compound 8b] | 277 to 279 °C | 0.0446 µM | –
O=c1[nH]c2cccnc2nc1CN1CCOCC1 [Compound 8c] | 234 to 235 °C | 0.089 µM | –
O=c1[nH]c2cccnc2nc1CNc1ccccc1 [Compound 8d] | 248 to 250 °C | 0.101 µM | –
Cc1cccc(NCc2nc3ncccc3[nH]c2=O)c1 [Compound 8f] | 258 to 260 °C | 0.021 µM | –
Cc1ccc(NCc2nc3ncccc3[nH]c2=O)cc1 [Compound 8g] | 284 to 286 °C | – | –
O=c1[nH]c2cccnc2nc1CNc1ccc(Cl)cc1 [Compound 8h] | > 300 °C | – | –
O=c1[nH]c2cccnc2nc1CNc1ccc(Br)cc1 [Compound 8i] | > 300 °C | 0.137 µM | –
O=c1[nH]c2cccnc2nc1CN(c1ccccc1)c1ccccc1 [Compound 8j] | 292 to 293 °C | – | –
O=c1[nH]c2cccnc2nc1CN/N=C/c1ccccc1 [Compound 9a] | 234 to 236 °C | 0.0322 µM | –
O=c1[nH]c2cccnc2nc1CN/N=C/c1ccc(Cl)cc1 [Compound 9b] | 237 to 239 °C | 0.0304 µM | –
O=c1[nH]c2cccnc2nc1CN/N=C/c1ccc([N+](=O)[O-])cc1 [Compound 9c] | 238 to 240 °C | 0.0414 µM | –
COc1ccc(/C=N/NCc2nc3ncccc3[nH]c2=O)cc1 [Compound 9d] | 256 to 258 °C | 0.0323 µM | –
C/C(=N\NCc1nc2ncccc2[nH]c1=O)c1ccccc1 [Compound 9e] | 230 to 233 °C | 0.0294 µM | –
O=c1[nH]c2cccnc2nc1Cc1n[nH]c(=O)n1-c1ccccc1 [Compound 10a] | 220 to 222 °C | – | –
O=c1[nH]c2cccnc2nc1Cc1n[nH]c(=S)n1-c1ccccc1 [Compound 10c] | 219 to 222 °C | – | –

Compound | melting point | IC50 [1] | also measured
CC(=O)N1N=C(Cc2nc3ncccc3[nH]c2=O)OC1c1ccccc1 (centres unmarked) [Compound 11a] | 234 to 236 °C | 0.0263 µM | –
CC(=O)N1N=C(Cc2nc3ncccc3[nH]c2=O)OC1c1ccc([N+](=O)[O-])cc1 (centres unmarked) [Compound 11b] | 240 to 242 °C | 0.0181 µM | –
COc1ccc(C2OC(Cc3nc4ncccc4[nH]c3=O)=NN2C(C)=O)cc1 (centres unmarked) [Compound 11c] | 235 to 237 °C | 0.031 µM | –
O=C1Nc2cccnc2N2C1=CNN=C2c1ccccc1 [Compound 12a] | 219 to 221 °C | – | –
O=C1Nc2cccnc2N2C1=CNN=C2c1ccc(Cl)cc1 [Compound 12b] | 222 to 225 °C | – | –
O=C1Nc2cccnc2N2C1=CNN=C2c1ccc([N+](=O)[O-])cc1 [Compound 12c] | 222 to 224 °C | – | –
COc1ccc(C2=NNC=C3C(=O)Nc4cccnc4N32)cc1 [Compound 12d] | 229 to 231 °C | – | –
CCCc1nn(C)c2c(=O)[nH]c(-c3cc(S(=O)(=O)N4CCN(C)CC4)ccc3OCC)nc12 [t1, Sildenafil] | – | – | IC50 ([2]; ref [1]): 0.0022 µM
CN1CC(=O)N2[C@H](c3ccc4c(c3)OCO4)c3[nH]c4ccccc4c3C[C@@H]2C1=O [t3, Tadalafil] | – | – | IC50 ([2]; ref [1]): 0.0012 µM
COc1ccc(CNC(=O)c2cc([N+](=O)[O-])ccc2NC(C)CO)cc1OC (centres unmarked) [t5, Benzamidenafil] | – | – | IC50 ([2]; ref [3]): 0.0011 µM
COc1ccc(CN=c2[nH]c(N3CCC[C@H]3CO)ncc2C(=O)NCc2ncccn2)cc1Cl [t6, Avanafil] | – | – | IC50 ([2]; ref [5]): 0.0052 µM
CCCc1nn(C)c2c(=O)[nH]c(-c3cc(S(=O)(=O)N4CCN(CC)CC4)ccc3OCC)nc12 [t7, Homosildenafil] | – | – | IC50 ([2]; ref [5]): 0.0038 µM
CCCc1nn(C)c2c(=O)[nH]c(-c3cc(S(=O)(=O)N4CCN(CCO)CC4)ccc3OCC)nc12 [t8, Hydroxyhomosildenafil] | – | – | IC50 ([2]; ref [5]): 0.0034 µM
CCCc1nn(C)c2c(=O)[nH]c(-c3cc(C(=O)CN4CCN(CC)CC4)ccc3OCC)nc12 [t9, Acetildenafil] | – | – | IC50 ([2]; ref [5]): 0.0076 µM
CCCc1nn(C)c2c(=O)[nH]c(-c3cc(C(=O)CN4CCN(CCO)CC4)ccc3OCC)nc12 [t10, Hydroxyacetildenafil] | – | – | IC50 ([2]; ref [5]): 0.0584 µM
CCCc1nn(C)c2c(=S)nc(-c3cc(S(=O)(=O)N4CCN(C)CC4)ccc3OCC)[nH]c12 [t11, Thiosildenafil] | – | – | IC50 ([2]; ref [5]): 0.0006 µM
CCCOc1ccc(S(=O)(=O)NCCC2CCCN2C)cc1-c1nc2c(CCC)nn(C)c2c(=O)[nH]1 (centres unmarked) [t13, Udenafil] | – | – | IC50 ([2]; ref [6]): 0.0083 µM
CCCc1nn(C)c2c(=S)nc(-c3cc(S(=O)(=O)N4C[C@@H](C)N[C@@H](C)C4)ccc3OCC)[nH]c12 [t15, Thioaildenafil] | – | – | IC50 ([2]; ref [3]): 0.0006 µM
CCCc1nn(C)c2c(=O)[nH]c(-c3cc([N+](=O)[O-])ccc3OCC)nc12 [t16, Nitrodenafil] | – | – | IC50 ([2]; ref [3]): 0.0674 µM
CCCc1nn(C)c2c(=O)[nH]c(-c3cc(C(=O)CN4C[C@@H](C)N[C@@H](C)C4)ccc3OCC)nc12 [t17, Dimethylacetildenafil] | – | – | IC50 ([2]; ref [3]): 0.0512 µM
NN1CC(=O)N2[C@H](c3ccc4c(c3)OCO4)c3[nH]c4ccccc4c3C[C@@H]2C1=O [t116, Aminotadalafil] | – | – | IC50 ([2]; ref [5]): 0.0042 µM
Carbodenafil [t12] | – | – | IC50 ([2]; ref [6]): 0.0052 µM
